Data from patent US12312347B2, “Azaindole derivative and use thereof as FGFR and C-Met inhibitor” (Wuxi Life Fountain Biotech Co., Ltd, priority 2018, dated 2025).
pIC50: −log10 of the molar value.

What was measured:
[1] = target: T1, human FGFR1 (Homo sapiens, UniProt P11362); experiment: 33P isotope-labeled kinase activity test, FGFR1; format: biochemical; settings: ATP 5 μM
T1 construct: purchased Invitrogen PV3146
Description: (§1) The inhibitory activities of the tested compounds on human FGFR1, FGFR4, and c-Met were evaluated by the IC50 values measured using ^33P isotope-labeled kinase activity test (Reaction Biology Corp).
(§2) Buffer condition: 20 mM Hepes (pH 7.5), 10 mM MgCl2, 1 mM EGTA, 0.02% Brij35, 0.02 mg/mL BSA, 0.1 mM Na3VO4, 2 mM DTT, 1% DMSO.
Test procedure: The test compounds were dissolved in DMSO at room temperature and formulated to be 10 mM solutions for later use. The substrates were dissolved in freshly prepared buffer, and kinases to be tested were added and mixed well. The test compounds dissolved in DMSO were added to the above mixed reaction solutions by acoustic technique (Echo 550). […] After incubation for 15 min, ^33P-ATP (activity 0.01 μCi/μL, corresponding concentrations are listed in Table 1) was added to start the reaction. Supplier item number, batch number, as well as the concentration information in the reaction solution of FGFR1, FGFR4, c-Met and substrates thereof are listed in Table 1. […] The kinase activity data are expressed by comparison between the kinase activity in the test compound group and the kinase activity in the blank group (containing DMSO only). IC50 values were obtained by curve fitting with Prism4 software (GraphPad).

[2] = test system: SNU-16 transplantation tumor model; experiment: In vivo pharmacodynamic evaluation, SNU-16 gastric cancer transplantation tumor model; parameters: species or system nude mice; settings: SNU-16 transplantation model
Description: Method of establishing SNU-16 gastric cancer model: SNU-16 cells in logarithmic growth phase were collected, and the cells were resuspended in 50% PBS (pH 7.4, 0.01 M) and 50% Matrigel after cell counting. The cell concentration was adjusted to 4×10^7 cells/mL; the cells were placed in an ice box, and the cell suspension was aspirated with a 1-mL syringe and subcutaneously injected into nude mice via the anterior right armpit. Each animal was inoculated with 200 μL (8×10^6 cells/each) to establish the SNU-16 transplantation tumor model. The animals were observed regularly, and the tumor diameters were measured using an electronic vernier caliper. The data were inputted an Excel spreadsheet to calculate the tumor volume and monitor the tumor growth. When the tumor volume reached 100-300 mm^3, mice bearing similar tumor volume and in good health condition were selected. Randomization method was used for animal grouping; the number of animals in each group was n=7, and the average tumor volume of each group was about 145 mm^3. After the experiment started, tumor diameters were measured and tumor volume was calculated twice a week, and the weight of animals was weighed and recorded.
Tumor growth inhibition (TGI) was used to analyze the tumor growth trend and evaluated by tumor volume over time. The long axis (L) and short axis (W) of the subcutaneous tumors were measured twice a week by a caliper, and the tumor volume (TV) was calculated by the formula ((L×W^2)/2).
The experimental data were calculated and statistically processed by SPSS 19.0. Unless otherwise stated, data were expressed as mean f standard error (Mean±SE), and comparisons between two groups were analyzed by t-test. p<0.05 indicates a significant difference. The solvent 30% PEG400 (containing 70% deionized water, v/v) was used as negative control.

[3] = Pharmacokinetic evaluation in mice (IV and PO); format: in vivo, male CD-1 mice; settings: for AUC(0-t) / bioavailability / Cmax / Tmax / clearance / half-life / Vd: male, plasma; for bioavailability: PO 10 mg/kg vs IV 2 mg/kg, read-out: F (bioavailability); for Cmax: read-out: Cmax (peak concentration); for Tmax: read-out: Tmax (time to peak); for clearance: read-out: Cl (plasma clearance); for half-life: read-out: T1/2 (elimination half-life) (converted); for Vd: read-out: Vdss (steady-state apparent volume of distribution); for oral bioavailability (in words): oral administration
Description: Experimental Procedure: 0.4 mg/mL clear solution of the test compounds in a specific menstruum was injected intravenously into male CD-1 nude mice (overnight fasting, aged 7-9 weeks) via caudal vein at a dose of 2 mg/kg. About 30 μL of blood was collected from jugular or caudal vein at 0.0833, 0.25, 0.5, 1.0, 2.0, 4.0, 8.0 and 24 h after intravenous administration. […] About 30 μL of blood was collected from jugular or caudal vein of the male CD-1 mice at 0.0833, 0.25, 0.5, 1.0, 2.0, 4.0, 8.0 and 24 h after oral administration. The blood samples were added into anticoagulant tubes containing EDTA-K2, and then centrifuged to separate the plasma. LC-MS/MS method was used to determine the drug concentration in blood, and WinNonlin™ Version 6.3 (Pharsight, Mountain View, CA) pharmacokinetic software was used to calculate the relevant pharmacokinetic parameters by non-compartment model linear logarithmic trapezoidal method.
Note: Plasma clearance (Cl) mL/min/kg, steady-state apparent volume of distribution (Vdss) L/kg, elimination half-life (T1/2) and area under the plasma concentration curve from point 0 to the last measurable time point (AUC0-last), bioavailability F %, peak concentration (Cmax), time to peak Tmax

[4] = target: T2, human c-Met (Homo sapiens, UniProt P08581); experiment: 33P isotope-labeled kinase activity test, c-Met; format: biochemical; settings: ATP 10 μM
T2 construct: purchased Invitrogen PV3143
Description: as §1, §2
(§3) Test procedure: The test compounds were dissolved in DMSO at room temperature and formulated to be 10 mM solutions for later use. The substrates were dissolved in freshly prepared buffer, and kinases to be tested were added and mixed well. The test compounds dissolved in DMSO were added to the above mixed reaction solutions by acoustic technique (Echo 550). The concentration of the compound in reaction solution was 1 μM, […], 3.91 nM, 0.977 nM, 0.244 nM, 0.061 nM, 0.0153 nM, 0.00381 nM or 10 μM, 2.50 μM, 0.62 μM, 0.156 μM, 39.1 nM, 9.8 nM, 2.4 nM, 0.61 nM, 0.15 nM, 0.038 nM. After incubation for 15 min, ^33P-ATP (activity 0.01 μCi/μL, corresponding concentrations are listed in Table 1) was added to start the reaction. Supplier item number, batch number, as well as the concentration information in the reaction solution of FGFR1, FGFR4, c-Met and substrates thereof are listed in Table 1. […] The kinase activity data are expressed by comparison between the kinase activity in the test compound group and the kinase activity in the blank group (containing DMSO only). IC50 values were obtained by curve fitting with Prism4 software (GraphPad).

[5] = target: T3, human FGFR4 (Homo sapiens, UniProt P22455); experiment: 33P isotope-labeled kinase activity test, FGFR4; format: biochemical; settings: ATP 100 μM
T3 construct: purchased Invitrogen P3054
Description: as §1, §2, §3

T3 sequence (P22455 22-802): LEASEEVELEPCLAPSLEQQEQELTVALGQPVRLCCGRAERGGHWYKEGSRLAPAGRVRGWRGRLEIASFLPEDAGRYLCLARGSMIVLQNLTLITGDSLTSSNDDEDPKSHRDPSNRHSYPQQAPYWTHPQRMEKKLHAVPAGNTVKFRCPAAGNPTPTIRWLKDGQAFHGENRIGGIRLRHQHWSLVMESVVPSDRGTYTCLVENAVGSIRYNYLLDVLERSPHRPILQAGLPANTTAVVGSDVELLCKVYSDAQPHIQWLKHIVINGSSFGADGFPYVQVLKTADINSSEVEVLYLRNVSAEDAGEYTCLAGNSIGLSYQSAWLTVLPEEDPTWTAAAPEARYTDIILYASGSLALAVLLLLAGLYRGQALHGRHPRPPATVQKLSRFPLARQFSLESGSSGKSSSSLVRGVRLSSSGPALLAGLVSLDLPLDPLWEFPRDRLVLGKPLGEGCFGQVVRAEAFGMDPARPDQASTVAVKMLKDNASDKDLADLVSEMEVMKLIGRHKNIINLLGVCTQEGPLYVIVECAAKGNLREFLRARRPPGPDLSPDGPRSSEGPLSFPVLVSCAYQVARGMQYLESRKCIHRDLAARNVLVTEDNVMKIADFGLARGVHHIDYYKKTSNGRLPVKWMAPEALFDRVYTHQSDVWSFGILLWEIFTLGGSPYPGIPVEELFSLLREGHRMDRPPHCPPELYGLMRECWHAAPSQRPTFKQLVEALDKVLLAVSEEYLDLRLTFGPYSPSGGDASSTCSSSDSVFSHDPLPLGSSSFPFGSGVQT
T1 sequence (P11362 22-822): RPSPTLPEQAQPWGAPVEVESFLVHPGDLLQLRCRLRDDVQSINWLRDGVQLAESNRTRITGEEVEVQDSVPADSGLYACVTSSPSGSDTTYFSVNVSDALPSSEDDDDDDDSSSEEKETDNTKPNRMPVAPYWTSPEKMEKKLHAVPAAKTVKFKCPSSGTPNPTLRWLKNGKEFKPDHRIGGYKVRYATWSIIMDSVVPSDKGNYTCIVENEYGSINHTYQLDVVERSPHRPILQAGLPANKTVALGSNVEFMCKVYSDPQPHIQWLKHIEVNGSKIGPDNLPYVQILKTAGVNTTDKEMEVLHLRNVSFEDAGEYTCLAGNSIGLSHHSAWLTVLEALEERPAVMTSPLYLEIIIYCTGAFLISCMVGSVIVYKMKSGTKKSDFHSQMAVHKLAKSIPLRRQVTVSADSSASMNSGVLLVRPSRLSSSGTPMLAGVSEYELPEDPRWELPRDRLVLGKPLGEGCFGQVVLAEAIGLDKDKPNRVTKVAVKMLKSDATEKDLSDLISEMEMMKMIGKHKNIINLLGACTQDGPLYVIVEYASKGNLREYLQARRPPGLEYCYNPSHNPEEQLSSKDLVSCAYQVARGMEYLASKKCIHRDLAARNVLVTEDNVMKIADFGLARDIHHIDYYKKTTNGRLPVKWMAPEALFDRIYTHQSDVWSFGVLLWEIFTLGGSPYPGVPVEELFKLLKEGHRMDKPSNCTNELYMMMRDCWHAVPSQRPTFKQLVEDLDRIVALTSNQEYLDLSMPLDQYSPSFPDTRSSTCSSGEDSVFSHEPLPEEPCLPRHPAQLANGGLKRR
T2 sequence (P08581 25-1390): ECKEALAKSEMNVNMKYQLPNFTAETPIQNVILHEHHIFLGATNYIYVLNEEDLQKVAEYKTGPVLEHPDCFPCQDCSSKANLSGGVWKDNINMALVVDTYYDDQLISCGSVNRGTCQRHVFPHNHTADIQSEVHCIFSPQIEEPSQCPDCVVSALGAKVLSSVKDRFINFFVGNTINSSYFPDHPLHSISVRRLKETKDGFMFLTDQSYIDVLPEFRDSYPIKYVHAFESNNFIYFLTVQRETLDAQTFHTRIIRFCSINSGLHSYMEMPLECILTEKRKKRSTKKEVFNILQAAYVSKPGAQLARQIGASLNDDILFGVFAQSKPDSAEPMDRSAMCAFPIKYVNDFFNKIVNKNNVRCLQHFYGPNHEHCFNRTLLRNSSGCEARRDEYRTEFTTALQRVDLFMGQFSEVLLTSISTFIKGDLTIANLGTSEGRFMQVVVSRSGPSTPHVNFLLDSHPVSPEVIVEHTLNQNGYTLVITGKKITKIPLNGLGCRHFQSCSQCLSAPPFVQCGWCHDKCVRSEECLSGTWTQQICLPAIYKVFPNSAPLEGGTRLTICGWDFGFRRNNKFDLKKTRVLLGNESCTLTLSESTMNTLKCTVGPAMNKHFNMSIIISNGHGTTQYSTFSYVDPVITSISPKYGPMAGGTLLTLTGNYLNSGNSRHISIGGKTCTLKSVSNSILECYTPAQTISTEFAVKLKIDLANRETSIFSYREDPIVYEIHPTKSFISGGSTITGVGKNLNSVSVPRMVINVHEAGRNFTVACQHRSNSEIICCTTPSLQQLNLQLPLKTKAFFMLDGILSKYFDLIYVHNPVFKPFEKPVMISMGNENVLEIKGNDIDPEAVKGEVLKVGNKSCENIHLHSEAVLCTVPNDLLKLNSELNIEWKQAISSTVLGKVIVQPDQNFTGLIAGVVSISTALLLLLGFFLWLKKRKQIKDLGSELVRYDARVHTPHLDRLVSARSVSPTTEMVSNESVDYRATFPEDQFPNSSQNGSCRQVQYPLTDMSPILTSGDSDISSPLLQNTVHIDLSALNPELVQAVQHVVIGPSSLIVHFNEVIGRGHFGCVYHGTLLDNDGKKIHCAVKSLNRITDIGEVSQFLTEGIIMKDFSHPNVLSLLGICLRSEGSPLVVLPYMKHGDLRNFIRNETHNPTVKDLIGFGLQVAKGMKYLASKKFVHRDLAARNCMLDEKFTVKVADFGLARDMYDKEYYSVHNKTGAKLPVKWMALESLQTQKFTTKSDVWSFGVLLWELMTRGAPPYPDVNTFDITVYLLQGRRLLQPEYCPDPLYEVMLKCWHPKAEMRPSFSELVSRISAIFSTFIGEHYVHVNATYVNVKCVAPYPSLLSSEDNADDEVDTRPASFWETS

pIC50 [1]	AUC(0-t) ([3]; CD-1, mouse, PO 10 mg/kg)	bioavailability ([3]; CD-1, mouse)	Cmax ([3]; CD-1, mouse, PO 10 mg/kg)	Tmax ([3]; CD-1, mouse, PO 10 mg/kg)	AUC(0-t) ([3]; CD-1 nude, mouse, IV 2 mg/kg)	clearance ([3]; CD-1 nude, mouse, IV 2 mg/kg)	half-life ([3]; CD-1 nude, mouse, IV 2 mg/kg)	Vd ([3]; CD-1 nude, mouse, IV 2 mg/kg)	oral bioavailability (in words) [3]	pIC50 [4]	pIC50 [5]	Compound	TGI % (the last administration on the 21th day) ([2]; 10 mg/KG QD)	TGI % (the last administration on the 21th day) ([2]; 5 mg/KG BID)
9.52	3.23 µM·h	21.5%	877 nM	1.3 h	3.15 µM·h	25.3 mL/min/kg	1.1 h	2.1 L/kg	moderate bioavailability	8.20	8.77	COc1nc(OC)c(F)c(Cc2c[nH]c3ncc(-c4cnn(CCO)c4)cc23)c1F [Embodiment 48]	77%	
	16.6 µM·h	86.6%	5040 nM	1 h	3.79 µM·h	21.2 mL/min/kg	1.1 h	1.7 L/kg	high oral bioavailability			COc1cc(OC)c(F)c(Cc2c[nH]c3ncc(-c4cnn(CCO)c4)cc23)c1F [Embodiment 46]	80%	98%
